In patent publication US20230128730A1, “OXYGEN IMPERMEABLE PORPHYRIN PHOTOSENSITIZER FILM COMPOSITION FOR APPLICATION TO PLANTS” (SUNCOR ENERGY INC., priority 2020, published 2023):

System: Pseudomonas syringae pv. tabaci
Experiment: In vitro effect of PP IX and modified PP IX on Pseudomonas syringae pv. tabaci, with and without chelating agent
Format: cell-based
Details: 10 μM; illumination 1 hour, about 1000 μmol/m^2/s PAR; PBS control 8.7
Experimental: In this example, control of the gram-negative bacterial plant pathogen Pseudomonas syringae pv. tabaci with PP IX and modified PP IX was assessed, with and without chelating agents. Treatments were prepared in Phosphate Buffered Saline (PBS) in 96 well plates at desired concentrations. A bacterial suspension was inoculated into the PBS and incubated at 28° C. in the dark for 30 minutes. After 30 minutes, the 96 well plate was placed under illumination for 1 hour (at 21° C.). Following illumination, bacterial suspensions were serially diluted and 10 μL of each dilution is spread uniformly on Tryptic Soy Agar (TSA) plates and placed in the dark in an incubator at 28° C. for 48 hours. After 48 hours, bacterial colonies were counted, and the results were log transformed (log colony forming units (CFU)/mL). The relative inactivation was determined by taking the difference between log CFU(PBS control) and log CFU(treatments). Sample Illumination was provided by LED lights (Heliospectra RX30) emitting about 1000 μmol/m^2/s photosynthetically active radiation (PAR).

Protoporphyrin IX disodium salt [PP IX disodium salt]
log CFU/ml: 7.4 log CFU/ml
